Experiments:
[1] = tested on: HK2, LDHA, NDUS3, ATP5B, Wnt1a, Lef-1, Gli-1, versican; assay: Expression of genes related to metabolism and hair regeneration in skin tissue; format: in vivo, mouse
Description: (§1) During the hair telogen phase, the hair on the dorsal skin of 7-week-old C57BL/6 mice (Dae Han BioLink, Chungbuk, Republic of Korea) was depilated using an animal clipper and wax (Veet, Oxy Reckitt Benckiser, Seoul, Republic of Korea). From the next day, 200 μL of placebo (control), 1% IM, 1% minoxidil, or 1% metformin was applied daily to the depilated area using a sterile cotton swab. Images of each animal were captured daily, and the degree of darkness of the color on dorsal skin was quantified in the same area (1.6 cm×3 cm) using the Image J program. The mice were sacrificed, and skin tissues on days 0, 7, 14, and 20 were obtained. Half of the tissues were used for RNA isolation, and the other half were fixed with 4% paraformaldehyde overnight for histochemical analysis. The level of expression of genes related to metabolism and hair regeneration was analyzed through the skin tissue of each mouse group.

[2] = tested on: auricle; assay: Auricle punch analysis (auricular tissue repair); format: in vivo, mouse; details: 2 mm ear punch holes, daily topical application, indicated concentrations
Description: For the auricular tissue repair analysis, three holes with a diameter of 2 mm were drilled in each ear using a punching instrument (Fine Science Tools, British Columbia, Canada). IM at the indicated concentration was applied daily with a sterile cotton swab. The hole area was measured with digital calipers (VWR, Radnor, Pa., USA).

[3] = tested on: K15/β-catenin, Ki67/Shh, K15/PDK, Ki67/PDH populations; assay: FACS analysis of single skin cells; format: in vivo, mouse
Description: as §1, with “After the mice were perfused with PBS” for “The level of expression of genes related”, “remove blood,” for “metabolism and hair regeneration was analyzed through”, “was harvested and cut into small pieces. The tissue was digested with trypsin (Thermo Fisher Scientific) at 37° C. for 150 minutes, then filtered through a 75 μm nylon mesh, followed by filtering through a 30 μm mesh (BD Biosciences). Single cells were fixed, permeabilized, and blocked according to the immunostaining protocol. The cells were stained with specific antibodies (Table 1 above) and analyzed with BD Accuri™ C6 (BD Biosciences)” for “of each mouse group.”

[4] = tested on: human embryonic stem cells (hESCs); assay: Maintaining stemness of human embryonic stem cells in unconditioned medium, AP staining; format: cell-based; details: for improvement of effect of maintaining stemness: hESCs in UM
Description: Additionally, the effect of the compounds of the present invention on maintaining sternness of human embryonic stern cells (hESCs) was confirmed (FIG. 4). Specifically, when hESCs were cultured in an unconditioned medium (UM), the sternness was lost, and AP activity was weakened (FIG. 4a). […] In particular, when IM176OUT05 was treated at 10 nM and 100 nM concentrations, it was confirmed that the effect of maintaining the sternness was improved by 7.6 times and 8.2 times, respectively (FIG. 4b).

[5] = tested on: K15, β-catenin, Ki67, Shh, PDK, PDH; assay: Histochemical (immunostaining) analysis of skin markers; format: in vivo, mouse
Description: as §1, with “tissues fixed in Example 1.1. were immersed in 30% sucrose, and then embedded in an OCT compound (Sakura Finetek USA Inc, Torrance, Calif., USA). Frozen fragments were obtained using a cryostat sectioning device (Leica, Wetzlar, Germany) and stained using hematoxylin (Sigma) and eosin (Sigma) (H&E), or each” for “level”, “the antibodies shown in Table 1 below. Immunohistochemical analysis was performed,” for “expression of genes related to metabolism”, “fluorescence images were taken with an Olympus microscope (Olympus)” for “hair regeneration was analyzed through the skin tissue of each mouse group.”

[6] = tested on: C57BL/6 mice; assay: Hair regeneration model, darkness of dorsal skin and hair growth; format: in vivo, mouse
Description: as §1, with “It was confirmed whether the IM compound can promote hair growth without showing toxicity or other side effects through mouse experiments. In 7-week-old C57BL/6 mice, the telogen phase was motivated by hair removal, and various concentrations” for “The level”, “IM were applied topically to the dorsal skin” for “expression”, “of” for “of genes related to metabolism and hair regeneration was analyzed through”, “mice daily.” for “skin tissue of each mouse group.”

Cc1ccccc1CCNC(=N)NC(=N)N [IM176OUT05, N-1-(2-methyl)phenethylbiguanide]
expression of stemness-related genes (Wnt1a, Lef-1, Gli-1, and versican) ([1]; day 7, skin): significantly upregulated | expression of glycolysis-related enzymes (HK2 and LDHA) ([1]; day 7, skin tissue): significantly induced | stemness-related genes compared to control ([1]; day 20, skin): significantly induced | expression of OXPHOS-related enzymes (NDUS3 and ATP5B) compared to control ([1]; day 20, skin tissue): increased | expression of glycolysis-related enzymes (HK2 and LDHA) compared to control ([1]; day 20, skin tissue): significantly increased | wound area of the auricle [2]: reduced the wound area of the auricle in a dose-dependent manner | K15+/PDK+ population in single skin cells ([3]; day 7, FACS): 5.9% | K15+/β-catenin+ population in single skin cells ([3]; day 7, FACS): 11.7% | Ki67+/PDH+ population ([3]; day 7, FACS): 13.7% | increase of K15+/β-catenin+ population compared to control ([3]; day 7, FACS): 3.7 | increase of glycolytic stem cell population (K15+/PDK+) compared to control ([3]; day 7, FACS): at least 6.6 times | Ki67+/Shh+ population in single skin cells ([3]; day 20, FACS): 36.7% | PDK+ cell population and Ki67+ cell population ([3]; day 20, FACS): increased | increase of Ki67+/Shh+ population compared to control ([3]; day 20, FACS): 2.7 times | separated populations of PDH+ cells and K15+ cells ([3]; day 20, FACS): increased | improvement of effect of maintaining stemness ([4]; 10 nM): 7.6 times | improvement of effect of maintaining stemness ([4]; 100 nM): 8.2 times | AP staining (stemness) ([4]; hESCs in unconditioned medium, low dose): increase in AP staining | Ki67-positive proliferating cells ([5]; day 7): identified | PDH expression in Ki67-positive proliferating cells ([5]; day 7): clearly confirmed | PDK expression in K15-positive stem cells ([5]; day 7): detected | expression of δ-catenin ([5]; day 7): increased | keratin 15 (K15) expression in follicle protrusion region compared to control or minoxidil ([5]; day 7): strongly expressed | K15/PDH and Ki67/PDK expressions ([5]; day 20): independently detected | Sonic hedgehog (Shh) detection ([5]; day 20): clearly detected | black pigmentation and hair growth ([6]; 1% topical daily on dorsal skin, day 9): remarkably observed | hair growth, male and female mice ([6]; 1% topical daily, comparison with minoxidil): promoted hair growth in both male and female mice | skin color compared to control or minoxidil-treated mice ([6]; 1% topical daily, day 8): clearly darkened | hair growth ([6]; 1% topical daily, day 10): markedly promoted | hair growth in female mice ([6]; 1% topical daily, female mice): strong promoting effect | effect compared to minoxidil, independent experiment ([6]; female mice): excellent effect as compared to minoxidil

— patent publication US20220000811A1, “COMPOSITION FOR PROMOTING HAIR GROWTH COMPRISING A GUANINE DERIVATIVE” (KOREA RESEARCH INSTITUTE OF BIOSCIENCE AND BIOTECHNOLOGY, priority 2019, published 2022)
